This note sets out measurements from article PMC6385246, “The human gut Firmicute Roseburia intestinalis is a primary degrader of dietary β-mannans” (Nature Communications, 2019).

The target in assay [1] is T1, RiCBM27 (Roseburia intestinalis, UniProt Z9TV37KX76).
T1 construct: expressed in Escherichia coli, immobilized on NTA chip (His6-tag)
T1 sequence (Z9TV37KX76 38-185 limits assumed): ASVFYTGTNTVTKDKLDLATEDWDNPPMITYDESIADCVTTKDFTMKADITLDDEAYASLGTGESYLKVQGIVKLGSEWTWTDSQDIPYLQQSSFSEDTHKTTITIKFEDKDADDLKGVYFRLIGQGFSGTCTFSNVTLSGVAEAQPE
The experiment in a line: SPR (Biacore T100, CBM immobilized on NTA chip). It is filed as binding. Particulars: 25 °C, 20 mM phosphate/citrate pH 6.5, 150 mM NaCl. The text has this: SPR (Biacore T100, CBM immobilized on NTA chip) on RiCBM27

In assay [2] the target is T2, RiCBM23 (Roseburia intestinalis).
T2 construct: expressed in Escherichia coli, immobilized on NTA chip (His6-tag)
The experiment in a line: SPR (Biacore T100, CBM immobilized on NTA chip). It is filed as binding. The note with it: 25 °C, 20 mM phosphate/citrate pH 6.5, 150 mM NaCl. The text has this: SPR (Biacore T100, CBM immobilized on NTA chip) on RiCBM23

In assay [3] the target is T3, RiMnBP (Roseburia intestinalis, UniProt C7G6G6).
T3 construct: gene msmE; mature form, cloned in pETM-11, expressed in E. coli
T3 sequence (C7G6G6 23-489): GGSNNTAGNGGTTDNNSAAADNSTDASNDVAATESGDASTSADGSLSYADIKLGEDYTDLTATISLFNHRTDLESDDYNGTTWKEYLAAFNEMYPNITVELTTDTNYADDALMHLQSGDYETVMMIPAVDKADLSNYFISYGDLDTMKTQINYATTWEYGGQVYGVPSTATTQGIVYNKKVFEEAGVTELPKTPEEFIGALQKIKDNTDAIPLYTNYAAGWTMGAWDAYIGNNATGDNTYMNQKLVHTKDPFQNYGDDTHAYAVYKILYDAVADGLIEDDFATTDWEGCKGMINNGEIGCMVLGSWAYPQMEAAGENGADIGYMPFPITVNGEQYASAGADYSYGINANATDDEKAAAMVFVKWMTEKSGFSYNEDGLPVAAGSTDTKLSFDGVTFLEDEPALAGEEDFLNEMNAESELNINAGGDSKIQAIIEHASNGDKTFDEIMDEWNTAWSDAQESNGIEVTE
The experiment in a line: ITC. The assay is classed as binding. Particulars: 25 °C, 10 mM sodium phosphate pH 6.5.

The target in assay [4] is T4, RiPgm (Roseburia intestinalis, UniProt C7G6G9).
T4 construct: gene pgcA_1; recombinant from E. coli, untagged (stop codon before His-tag), HIC purified; encoded in MULL (ROSINTL182_05469-83), own locus tag not in text
T4 sequence (C7G6G9 1-572): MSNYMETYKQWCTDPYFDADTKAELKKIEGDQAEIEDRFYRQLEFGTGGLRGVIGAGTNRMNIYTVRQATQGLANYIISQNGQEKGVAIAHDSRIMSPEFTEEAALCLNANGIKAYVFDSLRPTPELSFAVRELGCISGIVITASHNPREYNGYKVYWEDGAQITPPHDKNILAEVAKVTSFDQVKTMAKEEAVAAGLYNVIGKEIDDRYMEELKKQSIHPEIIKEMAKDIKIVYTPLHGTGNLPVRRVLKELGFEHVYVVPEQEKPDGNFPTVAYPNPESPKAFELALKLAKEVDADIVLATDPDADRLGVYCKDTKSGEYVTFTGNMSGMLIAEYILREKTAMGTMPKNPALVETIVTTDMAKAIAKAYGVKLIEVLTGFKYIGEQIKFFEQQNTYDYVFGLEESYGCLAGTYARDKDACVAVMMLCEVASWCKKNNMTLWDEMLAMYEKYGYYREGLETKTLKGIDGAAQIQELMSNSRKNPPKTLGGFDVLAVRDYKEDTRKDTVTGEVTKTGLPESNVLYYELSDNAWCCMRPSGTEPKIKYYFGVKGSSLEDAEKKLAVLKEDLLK
Nature of the assay: HPAEC-PAD of M6P formed. The assay is classed as biochemical. The note with it: 10 mM sodium phosphate pH 5.8, 1 mM MgCl2, 37 °C.

The target of assay [5] is T5, RiMep (Roseburia intestinalis, UniProt C7G6G3).
T5 construct: gene ce-ne1; recombinant from E. coli, untagged (stop codon before His-tag), HIC purified
T5 sequence (C7G6G3 1-409): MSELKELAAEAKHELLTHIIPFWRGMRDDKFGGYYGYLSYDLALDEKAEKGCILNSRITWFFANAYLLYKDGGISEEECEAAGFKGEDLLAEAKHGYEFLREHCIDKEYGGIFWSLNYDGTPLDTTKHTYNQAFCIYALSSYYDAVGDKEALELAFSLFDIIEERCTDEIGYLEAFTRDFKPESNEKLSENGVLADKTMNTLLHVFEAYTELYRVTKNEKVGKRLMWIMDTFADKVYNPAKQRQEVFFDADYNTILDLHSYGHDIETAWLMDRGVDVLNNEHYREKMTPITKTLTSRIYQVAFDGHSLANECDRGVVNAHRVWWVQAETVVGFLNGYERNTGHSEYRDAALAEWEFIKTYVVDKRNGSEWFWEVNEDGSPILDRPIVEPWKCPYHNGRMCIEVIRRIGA
Nature of the assay: HPAEC-PAD of epimerization products. It is filed as biochemical. Particulars: 10 mM sodium phosphate pH 5.8, 37 °C.

Assay [6] concerns the target T6, RiGH113 (Roseburia intestinalis, UniProt C7G6H0).
T6 construct: gene RIL182_01090; recombinant from E. coli, untagged (stop codon before His-tag), HIC purified
T6 sequence (C7G6H0 1-311): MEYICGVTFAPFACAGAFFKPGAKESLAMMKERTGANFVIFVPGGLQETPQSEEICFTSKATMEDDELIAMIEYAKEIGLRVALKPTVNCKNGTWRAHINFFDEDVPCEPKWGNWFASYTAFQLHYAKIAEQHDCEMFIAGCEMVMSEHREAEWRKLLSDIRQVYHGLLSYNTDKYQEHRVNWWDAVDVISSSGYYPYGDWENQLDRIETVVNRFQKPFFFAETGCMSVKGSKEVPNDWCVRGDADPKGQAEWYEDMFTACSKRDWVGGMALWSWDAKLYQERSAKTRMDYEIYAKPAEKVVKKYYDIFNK
Nature of the assay: HPAEC-PAD of mannose released. The assay is classed as biochemical. The note with it: 10 mM sodium phosphate pH 5.8, 37 °C, overnight.

For assay [7], the target named is T7, RiGH130_2 (Roseburia intestinalis, UniProt C7G6G1).
T7 construct: gene RIL182_01100; recombinant from E. coli, C-terminal His6-tag
T7 sequence (C7G6G1 entry or part of it): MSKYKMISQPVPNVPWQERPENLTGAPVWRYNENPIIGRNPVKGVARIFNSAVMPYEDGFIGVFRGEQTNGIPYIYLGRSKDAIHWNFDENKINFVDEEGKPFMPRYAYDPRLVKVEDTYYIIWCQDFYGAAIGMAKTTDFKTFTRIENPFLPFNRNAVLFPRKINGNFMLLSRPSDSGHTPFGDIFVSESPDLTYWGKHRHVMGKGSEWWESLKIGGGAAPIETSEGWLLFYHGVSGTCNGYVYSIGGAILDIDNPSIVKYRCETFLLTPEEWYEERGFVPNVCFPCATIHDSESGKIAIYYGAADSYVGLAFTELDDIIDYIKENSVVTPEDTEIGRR
The experiment in a line: HPAEC-PAD of phosphorolysis products. The assay is classed as biochemical. The note with it: 100 mM sodium phosphate pH 5.8, 37 °C.

In the case of `OC[C@H]1O[C@@H](O[C@H]2[C@H](O)[C@H](O)[C@H](O[C@H]3[C@H](O)[C@H](O)C(O)O[C@@H]3CO)O[C@@H]2CO)[C@@H](O)[C@@H](O)[C@@H]1O` (stereo partly drawn) [M3, mannotriose], the Kd was found to be 1590 ± 30 µM in assay [1], 230 ± 20 µM in assay [2] and 2.62 µM in assay [3].

With `O=P(O)(O)O[C@H]1O[C@H](CO)[C@@H](O)[C@H](O)[C@@H]1O` [M1P, mannose-1-phosphate], the “HPAEC-PAD of M6P formed” value in assay [4] was “RiPgm catalyzes the interconversion of M1P and mannose 6-phosphate (M6P)”.

With `OC[C@H]1O[C@@H](O[C@H]2[C@H](O)[C@H](O)[C@H](O[C@H]3[C@H](O)[C@H](O)[C@H](O[C@H]4[C@H](O)[C@H](O)[C@H](O[C@H]5[C@H](O)[C@H](O)[C@H](O[C@H]6[C@H](O)[C@H](O)C(O)O[C@@H]6CO)O[C@@H]5CO)O[C@@H]4CO)O[C@@H]3CO)O[C@@H]2CO)[C@@H](O)[C@@H](O)[C@@H]1O` (stereo partly drawn) [M6, mannohexaose], the Kd in assay [1] amounted to 165 ± 10 µM; in assay [2], 205 ± 40 µM; in assay [3], 33.8 µM.

As for diacetylated mannotetraose [M4Ac2], in assay [3], the Kd turned out to be 25.7 µM.

In assay [3], diacetylated mannopentaose [M5Ac2] came in with a dissociation constant (Kd) of 23.5 µM. This Kd and that of the molecule before are within 1.5-fold of each other.

With `OC[C@H]1O[C@@H](O[C@H]2[C@H](O)[C@H](O)[C@H](O[C@H]3[C@H](O)[C@H](O)[C@H](O[C@H]4[C@H](O)[C@H](O)[C@H](O[C@H]5[C@H](O)[C@H](O)C(O)O[C@@H]5CO)O[C@@H]4CO)O[C@@H]3CO)O[C@@H]2CO)[C@@H](O)[C@@H](O)[C@@H]1O` (stereo partly drawn) [M5, mannopentaose], the values for the Kd in assay [1], in assay [2] and in assay [3] were 321 ± 20 µM, 198 ± 70 µM and 2.55 µM, respectively.

As to `OC[C@H]1O[C@@H](O[C@H]2[C@H](O)[C@H](O)C(O)O[C@@H]2CO)[C@@H](O)[C@@H](O)[C@@H]1O` (stereo partly drawn) [M2, mannobiose], the “HPAEC-PAD of epimerization products” value in assay [5] is “RiMep was active on M2 and cellobiose (G2), releasing M1G1 and G1M1, respectively”. Besides, the “HPAEC-PAD of mannose released” value in assay [6] is “After overnight incubation with RiGH113, M2 was partially degraded to mannose”.

Regarding `OC[C@H]1O[C@@H](O[C@H]2[C@H](O)[C@H](O)[C@H](O[C@H]3[C@H](O)[C@H](O)[C@H](O[C@H]4[C@H](O)[C@H](O)C(O)O[C@@H]4CO)O[C@@H]3CO)O[C@@H]2CO)[C@@H](O)[C@@H](O)[C@@H]1O` (stereo partly drawn) [M4, mannotetraose], the dissociation constant (Kd) in assay [1] came to 658 ± 20 µM; in assay [2] it was 130 ± 50 µM; in assay [3] it was 3.89 µM. Also, the “HPAEC-PAD of phosphorolysis products” value in assay [7] was “phosphorolyzed M4 into M3, M2 and mannose-1-phosphate (M1P)”.
